Marks after values point to notes of the source that are not given here.
Test system: CA1 pyramidal cell layer of organotypic hippocampal slice cultures
Assay: Hypoxic neuronal damage in organotypic hippocampal slice cultures (propidium iodide fluorescence)
Type: cell-based, Wistar rat
Details: for neuroprotective effect (in words): 300 μM added 30 minutes prior to hypoxia, during hypoxia and the 24 hour recovery period
Experimental: Hypoxic neuronal damage was studied using organotypic hippocampal slice cultures [Pringle A. K. et al. (1996 Stroke 27 2124-2130)].
Cultures were prepared according to the method of Stoppini et al (1991 J. Neurosci. Meth. 37 173-182) from 8-10 day old Wistar rat pups (Bioresources Unit, University of Southampton). Cultures were maintained in vitro for 14 days (37° C., 5% CO2) during which the medium (50% minimum essential medium (MEM), 25% Hank's balanced salt solution (HBSS), 25% heat-inactivated horse serum, supplemented with 1 mM glutamine, 5 mg/ml glucose and 1.5% fungizone) was changed every 3 days. Hypoxia was induced by replacing culture medium with serum-free (SF) medium (75% MEM, 25% HBSS, 1 mM glutamine, 5 mg/ml glucose, 1.5% fungizone) saturated with 95% N2/5% CO2 (and thus oxygen-free), and placing cultures in an air-tight chamber in which the atmosphere was also saturated with N2/CO2. After 180 minutes hypoxia, cultures were replated in normoxic SF medium and replaced in the incubator for 24 hours. Compounds were added to cultures either pre-, during and post-hypoxia (herein abbreviated to “pdp”) or just in the post-hypoxic recovery period (“post”) [Johnson, T. D. (1996 Trends Pharmacol. Sci. 22-27)]. Cell damage was evaluated using the fluorescent exclusion dye propidium iodide (PI, 5 μg/ml) which is normally excluded from healthy cells, but enters cells with damaged plasma membranes and becomes highly fluorescent when bound to DNA. Neuronal cell damage was quantified using the “NIH Image 1.55” software (written by Wayne Rasband at the U.S. National Institutes for Health and available from the internet by anonymous ftp from zippy.nimh.nih.gov). Briefly, the area of the CA1, CA3 and dentate gyrus (DG) cell layers was measured from a transmission image. 24 hours after the commencement of hypoxia, a fluorescence image was captured using a standard Leica inverted fluorescence microscope fitted with a rhodamine filter set. The area of PI fluorescence above background in the neuronal cell layers was determined using the density slice function of Image. Cellular damage is expressed as the percentage area of the cell body layers in which PI fluorescence was detectable. After imaging, cultures were fixed overnight in 4% paraformaldehyde and stained with thionin.
Data are expressed as the mean±sem. Data from the non-drug groups was pooled before analysis. Statistical significance was determined using one-way analysis of variance (ANOVA) followed by post-hoc non-paired Student's t-tests. As only cells within the CA1 region were susceptible to hypoxia-induced damage, all of the pharmacological data was calculated for this region alone.
Table 1 represents the quantification of the percentage area of the CA1 pyramidal cell layer in which PI fluorescence was detectable 24 hours after 3 hours of hypoxia (% Damage CA1). Data from all of the cultures exposed to hypoxia alone were pooled (control hypoxia). The percentage neuroprotection was calculated as the (((% damage control hypoxia-% damage drug treated)/% damage control hypoxia) 100). Data are expressed as the mean±sem, n=number of cultures, *p<0.05, **<0.01, ***p<0.001 vs hypoxia control.

N=C(N)NCCCC(N)C(=O)NCCCNCCCCN [Compound A, N′-L-Arginylspermidine]
neuroprotective effect (in words): complete protection | neuroprotective effect (in words) (listed as L-ArgSp): completely neuroprotective | neuroprotective effect / reduction of PI fluorescence in CA1 (in words) (300 μM added post-hypoxia): significant protective effect | neuroprotective effect / reduction of PI fluorescence in CA1 (in words) (300 μM added post-hypoxia, listed as L-ArgSp): significant neuroprotective effect | concentration dependence of the neuroprotective effect (0.3-300 μM added immediately post-hypoxia): concentration dependent | EC50 (Rattus norvegicus, added immediately post-hypoxia, 0.3-300 μM, read-out: EC50 of the neuroprotective effect): 3 to 30 µM | % Damage CA1 (Table 1, 300 μM added post-hypoxia, 3 h hypoxia, PI at 24 h, control hypoxia 35.6 ± 1.43, mean±sem): 9.9 ± 3.5*** % | % Protection (Table 1, 300 μM added post-hypoxia, vs control hypoxia): > 70% | % Protection (Table 1, 300 μM added post-hypoxia, vs control hypoxia, listed as L-ArgSp): 72.2% | % Damage CA1 (Table 1, 300 μM added pre-, during and post-hypoxia (pre), 3 h hypoxia, PI at 24 h, control hypoxia 35.6 ± 1.43, mean±sem, listed as L-ArgSp): 0.2±0.02% | % Protection (Table 1, 300 μM added pre-, during and post-hypoxia (pre), vs control hypoxia): 99.4% | % Protection (Table 3, 0.3 μM pdp, fresh batch): 15.5% | % Damage CA1 (Table 3, 0.3 μM pdp, fresh batch, control hypoxia 23.9 ± 2.7): 20.2 ± 8.4% | % Protection (Table 3, 1 μM pdp, fresh batch): 15.9% | % Damage CA1 (Table 3, 1 μM pdp, fresh batch, control hypoxia 23.9 ± 2.7): 20.1 ± 8.2% | % Protection (Table 3, 3 μM pdp, fresh batch): 72.8% | % Damage CA1 (Table 3, 3 μM pdp, fresh batch, control hypoxia 23.9 ± 2.7): 6.5 ± 3.0** % | % Protection (Table 3, 10 μM pdp, fresh batch): 63.2% | % Damage CA1 (Table 3, 10 μM pdp, fresh batch, control hypoxia 23.9 ± 2.7): 8.8 ± 3.9* % | % Protection (Table 3, 30 μM pdp, fresh batch): 65.9% | % Damage CA1 (Table 3, 30 μM pdp, fresh batch, control hypoxia 23.9 ± 2.7): 7.3 ± 4.2* % | % Protection (Table 3, 300 μM pdp, fresh batch): 66.5% | % Damage CA1 (Table 3, 300 μM pdp, fresh batch, control hypoxia 23.9 ± 2.7): 8.0 ± 3.0** % | % Protection (Table 7, 300 μM post): 56.3% | % Damage CA1 (Table 7, 300 μM post, hypoxia control 27.7 ± 3.1): 12.1 ± 3.5** %

Source: patent US6797699B1, “Neuroprotective agents” (University of Southampton, priority 1997, dated 2004)
